# Source: US7037644B1, “Means and methods for monitoring non-nucleoside reverse transcriptase inhibitor antiretroviral therapy and guiding therapeutic decisions in the treatment of HIV/AIDS” (ViroLogic, Inc., priority 1998, dated 2006)
# System: codon 181 mutant HIV-1
# Test: not given
# Conditions: cited from earlier work
row,SMILES,change in IC between wild-type and codon 181 mutant HIV-1
1,"CCc1cc(CCc2nc3c(Cl)ccc(Cl)c3o2)c(=S)[nH]c1C [L-702,019]",3 fold

# System: RTV-268, patient 97-268 (RT M41L, D67N, M184V, L210W, T215Y, K219Q, P236L)
# Test: Phenotypic susceptibility assay (patient RTV)
# Assay type: cell-based, HIV-1
# Conditions: patient virus RTV-268 vs reference virus
# Excerpt: The resistance test vectors containing a functional luciferase gene cassette were constructed and host cells were transfected with the resistance test vector DNA. The resistant test vectors contained patient-derived reverse transcriptase and protease sequences that were either susceptible or resistant to the antiretroviral agents, such as nucleoside reverse transcriptase inhibitors, non-nucleoside reverse transcriptase inhibitors and protease inhibitors. The resistance test vector viral particles produced by transfecting the resistance test vector DNA into host cells, either in the presence or absence of protease inhibitors, were used to infect target host cells grown either in the absence of NRTI or NNRTI or in the presence of increasing concentrations of the drug. The amount of luciferase activity produced in infected target host cells in the presence of drug was compared to the amount of luciferase produced in infected target host cells in the absence of drug. Drug resistance was measured as the amount of drug required to inhibit by 50% the luciferase activity detected in the absence of drug (inhibitory concentration 50%, IC50). The IC50 values were determined by plotting percent drug inhibition vs. log10 drug concentration.
# Host cells were seeded in 10-cm-diameter dishes and were transfected several days after plating with resistance test vector plasmid DNA and the envelope expression vector. Transfections were performed using a calcium-phosphate precipitation procedure. The cell culture media containing the DNA precipitate was replaced with fresh medium, from one to 24 hours, after transfection. Cell culture media containing resistance test vector viral particles was harvested one to four days after transfection and was passed through a […] filter before being stored at […]. HIV capsid protein (p24) levels in the harvested cell culture media were determined by an EIA method as described by the manufacturer (SIAC; Frederick, Md.). Before infection, target cells (293 and 293/T) were plated in cell culture media. Control infections were performed using cell culture media from mock transfections (no DNA) or transfections containing the resistance test vector plasmid DNA without the envelope expression plasmid. One to three or more days after infection the media was removed and cell lysis buffer (Promega) was added to each well. Cell lysates were assayed for luciferase activity (FIG. 3). The inhibitory effect of the drug was determined using the following equation: % luciferase inhibition=1−(RLUluc [drug]÷RLUluc)×100 where RLUluc [drug] is the relative light unit of luciferase activity in infected cells in the presence of drug and RLUluc is the Relative Light Unit of luciferase activity in infected cells in the absence of drug. IC50 values were obtained from the sigmoidal curves that were generated from the data by plotting the percent inhibition of luciferase activity vs. the log10 drug concentration. The drug inhibition curves are shown in (FIG. 3).
# A resistance test vector was constructed as described in Example 1 from a patient sample designated 97-268. This patient had been treated with AZT and 3TC (NRTIs), indinavir and saquinavir (PRIs) and delavirdine (an NNRTI) for periods varying from 1 month to 2 years. Isolation of viral RNA and RT/PCR was used to generate a patient derived segment that comprised viral sequences coding for all of PR and amino acids 1-313 of RT. The patient derived segment was inserted into a indicator gene viral vector to generate a resistance test vector designated RTV-268. RTV-268 was then tested using the phenotypic susceptibility assay to determine accurately and quantitatively the level of susceptibility to a panel of anti-retroviral drugs. This panel of anti-retroviral drugs comprised members of the classes known as NRTIs (AZT, 3TC, d4T, ddI and ddC), NNRTIs (delavirdine and nevirapine), and PRIs (indinavir, nelfinavir, ritonavir, and saquinavir). An IC50 was determined for each drug tested. […]
row,SMILES,change in susceptibility
1,Nc1ccn([C@@H]2CS[C@H](CO)O2)c(=O)n1 [3TC],significant resistance
2,Cc1cn([C@H]2C[C@H](N=[N+]=[N-])[C@@H](CO)O2)c(=O)[nH]c1=O [AZT],significant resistance
3,Cc1cn([C@H]2C=C[C@@H](CO)O2)c(=O)[nH]c1=O [d4T],slight shifts in susceptibility
4,Nc1ccn([C@H]2CC[C@@H](CO)O2)c(=O)n1 [ddC],slight shifts in susceptibility
5,O=c1[nH]cnc2c1ncn2[C@H]1CC[C@@H](CO)O1 [ddI],slight shifts in susceptibility
